What was measured:
[1] = test system: intracytoplasmic calcium in HCE-T cells; experiment: Fura 2 fluorescence measurement of [Ca^2+]i in HCE-T cell suspension; assay type: cell-based, human; settings: LPA1/3 receptor antagonist
Description: Particularly, according to a method such as Jrgensen and the like, HCE-T cells (1 to 2×10^6 cell/ml) were mixed in […] Fura 2-AM while being shaken for 30 minutes at a 37° C. incubator by using a Ca^2+-containing buffer (pH 7.4) consisting of NaCl 120 mM, KCl 5 mM, MgCl2 1 mM, CaCl2 1.5 mM, glucose 10 mM, and HEPES 25 mM and a Ca^2+-free buffer (pH 7.4) consisting of NaCl 120 mM, KCl 5 mM, MgCl2 1 mM, EGTA 0.2 mM, glucose 10 mM, and HEPES 25 mM, and an excessive amount of fura-2 was removed by washing the cells with the Ca^2+ buffer or the Ca^2+-free buffer three times.
[Ca^2+]i was estimated in the Fura 2-loaded cells by using a RF-5300PC intracellular ion measurement system (Shimadzu Corporation, Japan). […] Excitation wavelengths were alternated between 340 and […] under a computer control and emission was detected at 510. […]
A measured ratio value of 340:380 was converted to a value of [Ca^2+]i by using Equation of Hounsell and the like (Hounsell, E. F., Davies, M. J., and Smith, K. D. (1997) Protein protocol handbook, Humanna press, Totawa, 803-804). […] Further, Sf380 and Sb380 are fluorescence intensity at 380 nm when adding digitonin and EGTA and the ratios are maximum and minimum values when these values are indicated (Grynkiewicz, G., M. Poenie, and R. Y. Tsien. (1985) J Biol Chem 260: 3440-3450).

[2] = test system: human corneal epithelial-T (HCE-T) cells; experiment: Scratch wound healing / cell migration in HCE-T cells; assay type: cell-based; settings: Ki16425 treated before gintonin
Description: HCE-T cells (RCB-2280) were purchased from a Riken cell bank. The HCE-T cells were cultured in a medium in which 10% FCS was contained in a DMEM-Ham F12 (1:1) medium (Araki-sasaki et al., Investigative Ophthalmology and Visual Science 36, 614-621, 1995; Arakisasaki et al., J cellular Physiol. 182, 189-195, 2000).
HCE-T (2.5×10^5/well) was planted in a 24-well plate and cultured for 24 hrs and then cultured for 6 hrs in a 0.2% FBS-containing DMEM medium again. The wound was made by drawing a line through the center of each well where cells grew by using a […] pipette tip and then the floating cells were washed twice with a 1% FBS-containing DMEM medium to be removed.
The cells were treated with 0.03 to 1 μg/ml of gintonin and cultured and compared with cells without treating gintonin by observing and photographing (100×) cell shapes before and after gintonin treatment of each well with an inverted fluorescence microscope (AxioVert200; Carl Zeiss).
For the analysis of the degree of cell growth in a part wounded with the pipette tip, an area of the wound part where cells were not recovered was measured using AxioVision.

Cc1noc(-c2ccc(CSCCC(=O)O)cc2)c1NC(=O)OC(C)c1ccccc1Cl (centres unmarked) [Ki16425]
Effect of antagonist on increase in intracytoplasmic calcium by gintonin [1]: blocked | Effect of antagonist pretreatment on gintonin-promoted cell migration [2]: the action of the gintonin is inhibited
